These results are taken from the supplement of paper PMC11562712.

The structures appear in SMILES notation.

The data set in a line: first-order primary biodegradation rate constant k (sorption-corrected, fDis-corrected) (d-1); higher = faster biodegradation. The procedure: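 Modified OECD 309 water-sediment test. River water plus sieved sediment (50 g wet solid/L) from European river segments (DE, CH, ES, EL) was spiked with a mixture of 129 compounds at 1 ug/L each and incubated in the dark at river temperature for 10 days. The water phase was analysed by UHPLC-Orbitrap-MS. The first-order primary biodegradation rate constant k (d-1) is k_observed, corrected for dissipation in sterile sorption controls and divided by the dissolved fraction fDis; it was fitted over 3 replicate incubations. Invalid fits (p > 0.05, n < 5, not available, concentration increase) are excluded.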

Setting [1] is: river segment: Germany (DE) H_Contam, incubation temperature 24 °C.
Setting [2] is: river segment: Germany (DE) T_Contam, incubation temperature 24 °C.
Where [3] appears, read: river segment: Germany (DE) T_Pris, incubation temperature 24 °C.
The mark [4] stands for this setting: river segment: Greece (EL) A_Contam, incubation temperature 19 °C.
Where [5] appears, read: river segment: Greece (EL) G_Contam, incubation temperature 19 °C.
Where [6] appears, read: river segment: Greece (EL) G_Pris, incubation temperature 19 °C.
Where [7] appears, read: river segment: Greece (EL) L_Contam, incubation temperature 19 °C.
The mark [8] stands for this setting: river segment: Spain (ES) B_Contam, incubation temperature 24 °C.
The mark [9] stands for this setting: river segment: Spain (ES) C_Contam, incubation temperature 24 °C.
Where [10] appears, read: river segment: Spain (ES) F_Pris_Salt, incubation temperature 24 °C.
Where [11] appears, read: river segment: Spain (ES) L_Contam, incubation temperature 24 °C.
Where [12] appears, read: river segment: Switzerland (CH) C_Contam, incubation temperature 17 °C.
Where [13] appears, read: river segment: Switzerland (CH) R_Contam, incubation temperature 17 °C.
[14] abbreviates: river segment: Switzerland (CH) U_Contam, incubation temperature 17 °C.
[15] abbreviates: river segment: Switzerland (CH) U_Pris, incubation temperature 17 °C.

`COCCc1ccc(OCC(O)CNC(C)C)cc1` (stereo not drawn) [Metoprolol]: the “first-order primary biodegradation rate constant k” value runs as follows: under setting [1], 0.297; under setting [2], 0.215; under setting [3], 0.165; under setting [4], 0.291; under setting [5], 0.171; under setting [6], 0.258. Moreover, the “first-order primary biodegradation rate constant k” value worked out at 0.42 under setting [7]; 0.253 under setting [8]; 0.218 under setting [9]; 0.241 under setting [10]; 0.252 under setting [11]; 0.177 under setting [12]. Also, the “first-order primary biodegradation rate constant k” value was 0.263 under setting [13], 0.332 under setting [14] and 0.606 under setting [15].
On to `CN(C)C(=N)NC(=N)N` [Metformin], for which the “first-order primary biodegradation rate constant k” value under setting [1] turned out to be 0.0281, the “first-order primary biodegradation rate constant k” value under setting [2] was found to be 0.0415 and the “first-order primary biodegradation rate constant k” value under setting [3] was 0.0208.
As for `CCCCC1=NC2(CCCC2)C(=O)N1Cc1ccc(-c2ccccc2-c2nnn[nH]2)cc1` [Irbesartan], the “first-order primary biodegradation rate constant k” value by setting is: under setting [1], 0.161; under setting [6], 0.0725; under setting [11], 0.426; under setting [14], 0.0556.
Regarding `Cc1cc(Cl)ccc1OC(C)C(=O)O` (stereo not drawn) [Mecoprop], the “first-order primary biodegradation rate constant k” value by setting is: under setting [1], 0.0948; under setting [2], 0.267; under setting [3], 0.0247; under setting [4], 0.155; under setting [5], 0.021; under setting [6], 0.0919. Also, the “first-order primary biodegradation rate constant k” value under setting [7] came to 0.0787; the “first-order primary biodegradation rate constant k” value under setting [8] was found to be 0.0613; the “first-order primary biodegradation rate constant k” value under setting [9] came out at 0.159; the “first-order primary biodegradation rate constant k” value under setting [10] was 0.0616; the “first-order primary biodegradation rate constant k” value under setting [11] was determined as 0.0286; the “first-order primary biodegradation rate constant k” value under setting [12] is 0.0712. Further, the “first-order primary biodegradation rate constant k” value under setting [13] is 0.201, the “first-order primary biodegradation rate constant k” value under setting [14] amounted to 0.163 and the “first-order primary biodegradation rate constant k” value under setting [15] came to 0.417.
`CCCCCCCCCCN` [Decylamine]: the “first-order primary biodegradation rate constant k” value under setting [1] is 11.8; the “first-order primary biodegradation rate constant k” value under setting [2] worked out at 54.6; the “first-order primary biodegradation rate constant k” value under setting [3] is 5.65; the “first-order primary biodegradation rate constant k” value under setting [4] was 68.6; the “first-order primary biodegradation rate constant k” value under setting [5] was 17.4; the “first-order primary biodegradation rate constant k” value under setting [6] was 29.1. Besides, the “first-order primary biodegradation rate constant k” value stood at 43.8 under setting [9], 12.1 under setting [10], 0.758 under setting [12] and 11.7 under setting [13].
On to `CN(C)C(=O)Oc1cccc([N+](C)(C)C)c1` [Neostigmine], for which the “first-order primary biodegradation rate constant k” value runs as follows: under setting [2], 0.101; under setting [6], 0.0309; under setting [14], 0.486.
On to `Cn1c(=O)c2c(ncn2C)n(C)c1=O` [Caffeine], for which the “first-order primary biodegradation rate constant k” value is 0.262 under setting [1]; 0.415 under setting [2]; 0.0734 under setting [3]; 0.894 under setting [4]; 0.085 under setting [5]; 0.0394 under setting [6]. Further, the “first-order primary biodegradation rate constant k” value is, setting by setting: under setting [7], 0.276; under setting [8], 1.52; under setting [9], 0.276; under setting [10], 0.215; under setting [11], 0.895; under setting [12], 0.172. The “first-order primary biodegradation rate constant k” value was determined as 0.144 under setting [13], 0.368 under setting [14] and 0.69 under setting [15].
Consider `O=[N+]([O-])c1ccc(Cc2ccncc2)cc1` [4-(4-Nitrobenzyl)pyridine], for which the “first-order primary biodegradation rate constant k” value reads like this: under setting [1], 0.499; under setting [2], 1.05; under setting [3], 0.446; under setting [4], 1.09; under setting [5], 1.68; under setting [7], 1.94. The “first-order primary biodegradation rate constant k” value runs as follows: under setting [8], 0.863; under setting [9], 0.301; under setting [10], 0.146; under setting [11], 1.1; under setting [12], 0.314; under setting [13], 0.45. The “first-order primary biodegradation rate constant k” value was 1.95 under setting [14] and 2.28 under setting [15].
Take `Cc1ccc(S(=O)(=O)O)cc1` [p-Toluenesulfonic acid]: the “first-order primary biodegradation rate constant k” value is, setting by setting: under setting [1], 1.06; under setting [2], 0.52; under setting [3], 0.422; under setting [4], 0.369; under setting [6], 0.0811; under setting [7], 0.27. Also, the “first-order primary biodegradation rate constant k” value under setting [8] came to 0.18; the “first-order primary biodegradation rate constant k” value under setting [9] turned out to be 0.543; the “first-order primary biodegradation rate constant k” value under setting [10] was 0.0548; the “first-order primary biodegradation rate constant k” value under setting [11] came out at 0.55; the “first-order primary biodegradation rate constant k” value under setting [12] turned out to be 0.764; the “first-order primary biodegradation rate constant k” value under setting [13] was 0.292. The “first-order primary biodegradation rate constant k” value amounted to 0.186 under setting [14] and 0.12 under setting [15].
For `NS(=O)(=O)c1cc2c(cc1Cl)N=CNS2(=O)=O` [Chlorothiazide], the “first-order primary biodegradation rate constant k” value is, setting by setting: under setting [2], 0.0266; under setting [10], 0.166.
Take `CN(C)CCCC1(c2ccc(F)cc2)OCc2cc(C#N)ccc21` (stereo not drawn) [Citalopram]: the “first-order primary biodegradation rate constant k” value by setting is: under setting [1], 0.00417; under setting [2], 4.92; under setting [5], 8.04; under setting [7], 19.9; under setting [8], 0.279; under setting [9], 0.06. In addition, the “first-order primary biodegradation rate constant k” value reads like this: under setting [12], 0.0178; under setting [13], 0.288; under setting [14], 0.0832; under setting [15], 0.185.
`O=C(O)Cc1ccccc1Nc1c(Cl)cccc1Cl` [Diclofenac]: the “first-order primary biodegradation rate constant k” value under setting [1] came out at 0.137; the “first-order primary biodegradation rate constant k” value under setting [2] stood at 0.18; the “first-order primary biodegradation rate constant k” value under setting [4] was 0.0748; the “first-order primary biodegradation rate constant k” value under setting [7] was 0.0701; the “first-order primary biodegradation rate constant k” value under setting [8] stood at 0.574; the “first-order primary biodegradation rate constant k” value under setting [9] amounted to 0.074. Further, the “first-order primary biodegradation rate constant k” value stood at 0.0381 under setting [10] and 0.158 under setting [11].
